Measured values as given in patent US20110039721A1, “METHOD FOR PREDICTION ABOUT CARCINOGENICITY OF SUBSTANCE IN RODENT” (Chemicals Evaluation and Research Institute, priority 2007, published 2011).

How the values were obtained:
[1] = test system: mRNA expressed from the genes (A) to (D) in rat liver; assay: Behavior of genes (mRNA expression level, oligo-DNA microarray) in rat liver after 28-day oral administration; format: in vivo; conditions: mRNA vs vehicle control group; for Behavior of gene caused by administration of chemical substance, Gene No. 4846 / Behavior of gene caused by administration of chemical substance, Gene No. 2026 / Behavior of gene caused by administration of chemical substance, Gene No. 4218 / Behavior of gene caused by administration of chemical substance, Gene No. 6182 / Behavior of gene caused by administration of chemical substance, Gene No. 5600: gene group (A); for Behavior of gene caused by administration of chemical substance, Gene No. 4846: Unigene No. Rn.144554; for Behavior of gene caused by administration of chemical substance, Gene No. 2026 / Behavior of gene caused by administration of chemical substance, Gene No. 4218: Unigene No. Rn.167075; for Behavior of gene caused by administration of chemical substance, Gene No. 6182: Unigene No. Rn.5834; for Behavior of gene caused by administration of chemical substance, Gene No. 5600: Unigene No. Rn.9836; for Behavior of gene caused by administration of chemical substance, Gene No. 1494 / Behavior of gene caused by administration of chemical substance, Gene No. 2045 / Behavior of gene caused by administration of chemical substance, Gene No. 2203: gene group (B); for Behavior of gene caused by administration of chemical substance, Gene No. 1494: Unigene No. Rn.1430; for Behavior of gene caused by administration of chemical substance, Gene No. 2045: Unigene No. Rn.19329; for Behavior of gene caused by administration of chemical substance, Gene No. 2203: Unigene No. Rn.21240; for Behavior of gene caused by administration of chemical substance, Gene No. 533 / Behavior of gene caused by administration of chemical substance, Gene No. 725 / Behavior of gene caused by administration of chemical substance, Gene No. 1163 / Behavior of gene caused by administration of chemical substance, Gene No. 4973 / Behavior of gene caused by administration of chemical substance, Gene No. 4095 / Behavior of gene caused by administration of chemical substance, Gene No. 1334 / Behavior of gene caused by administration of chemical substance, Gene No. 6620 / Behavior of gene caused by administration of chemical substance, Gene No. 6303 / Behavior of gene caused by administration of chemical substance, Gene No. 5878 / Behavior of gene caused by administration of chemical substance, Gene No. 1131 / Behavior of gene caused by administration of chemical substance, Gene No. 1562 / Behavior of gene caused by administration of chemical substance, Gene No. 1741 / Behavior of gene caused by administration of chemical substance, Gene No. 893 / Behavior of gene caused by administration of chemical substance, Gene No. 6026 / Behavior of gene caused by administration of chemical substance, Gene No. 154 / Behavior of gene caused by administration of chemical substance, Gene No. 1993 / Behavior of gene caused by administration of chemical substance, Gene No. 813 / Behavior of gene caused by administration of chemical substance, Gene No. 2494 / Behavior of gene caused by administration of chemical substance, Gene No. 2546 / Behavior of gene caused by administration of chemical substance, Gene No. 3776 / Behavior of gene caused by administration of chemical substance, Gene No. 3929 / Behavior of gene caused by administration of chemical substance, Gene No. 1119 / Behavior of gene caused by administration of chemical substance, Gene No. 6742 / Behavior of gene caused by administration of chemical substance, Gene No. 5634: gene group (C); for Behavior of gene caused by administration of chemical substance, Gene No. 533: Unigene No. Rn.106184; for Behavior of gene caused by administration of chemical substance, Gene No. 725: Unigene No. Rn.108075; for Behavior of gene caused by administration of chemical substance, Gene No. 1163: Unigene No. Rn.11766; for Behavior of gene caused by administration of chemical substance, Gene No. 4973: Unigene No. Rn.118529; for Behavior of gene caused by administration of chemical substance, Gene No. 4095: Unigene No. Rn.119024; for Behavior of gene caused by administration of chemical substance, Gene No. 1334 / Behavior of gene caused by administration of chemical substance, Gene No. 6620: Unigene No. Rn.120914; for Behavior of gene caused by administration of chemical substance, Gene No. 6303: Unigene No. Rn.123063; for Behavior of gene caused by administration of chemical substance, Gene No. 5878: Unigene No. Rn.143213; for Behavior of gene caused by administration of chemical substance, Gene No. 1131: Unigene No. Rn.144946; for Behavior of gene caused by administration of chemical substance, Gene No. 1562: Unigene No. Rn.14744; for Behavior of gene caused by administration of chemical substance, Gene No. 1741: Unigene No. Rn.1647; for Behavior of gene caused by administration of chemical substance, Gene No. 893: Unigene No. Rn.164817; for Behavior of gene caused by administration of chemical substance, Gene No. 6026: Unigene No. Rn.167685; for Behavior of gene caused by administration of chemical substance, Gene No. 154: Unigene No. Rn.185941; for Behavior of gene caused by administration of chemical substance, Gene No. 1993: Unigene No. Rn.18728; for Behavior of gene caused by administration of chemical substance, Gene No. 813: Unigene No. Rn.201760; for Behavior of gene caused by administration of chemical substance, Gene No. 2494: Unigene No. Rn.23969; for Behavior of gene caused by administration of chemical substance, Gene No. 2546: Unigene No. Rn.24561; for Behavior of gene caused by administration of chemical substance, Gene No. 3776: Unigene No. Rn.43232; for Behavior of gene caused by administration of chemical substance, Gene No. 3929: Unigene No. Rn.4620; for Behavior of gene caused by administration of chemical substance, Gene No. 1119: Unigene No. Rn.9757; for Behavior of gene caused by administration of chemical substance, Gene No. 6742: Unigene No. Rn.9779; for Behavior of gene caused by administration of chemical substance, Gene No. 5634: Unigene No. Rn.9862; for Behavior of gene caused by administration of chemical substance, Gene No. 5726: gene group (D), Unigene No. Rn.9939
Procedure, shortened: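 Groups of four male F344 SPF rats aged 5 weeks are gavaged once a day for 28 days with test chemical in solvent or with solvent alone at equal volume. Total RNA comes from liver taken on day 28. Fold change of 1.5 or 1/1.5 versus control, directionally consistent, defines significance.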

[2] = test system: liver; conditions: classification of the substance (Cr+/Cr−); cited from earlier work
[3] = test system: rodent; conditions: classification of the substance (C+/C−); cited from earlier work
[4] = classification of the substance (M+/M−); cited from earlier work

SMILES	Behavior of gene caused by administration of chemical substance, Gene No. 4846 [1]	Behavior of gene caused by administration of chemical substance, Gene No. 2026 [1]	Behavior of gene caused by administration of chemical substance, Gene No. 4218 [1]	Behavior of gene caused by administration of chemical substance, Gene No. 6182 [1]	Behavior of gene caused by administration of chemical substance, Gene No. 5600 [1]	Behavior of gene caused by administration of chemical substance, Gene No. 1494 [1]	Behavior of gene caused by administration of chemical substance, Gene No. 2045 [1]	Behavior of gene caused by administration of chemical substance, Gene No. 2203 [1]	Behavior of gene caused by administration of chemical substance, Gene No. 533 [1]	Behavior of gene caused by administration of chemical substance, Gene No. 725 [1]	Behavior of gene caused by administration of chemical substance, Gene No. 1163 [1]	Behavior of gene caused by administration of chemical substance, Gene No. 4973 [1]	Behavior of gene caused by administration of chemical substance, Gene No. 4095 [1]	Behavior of gene caused by administration of chemical substance, Gene No. 1334 [1]	Behavior of gene caused by administration of chemical substance, Gene No. 6620 [1]	Behavior of gene caused by administration of chemical substance, Gene No. 6303 [1]	Behavior of gene caused by administration of chemical substance, Gene No. 5878 [1]	Behavior of gene caused by administration of chemical substance, Gene No. 1131 [1]	Behavior of gene caused by administration of chemical substance, Gene No. 1562 [1]	Behavior of gene caused by administration of chemical substance, Gene No. 1741 [1]	other results
CCN(N=O)C(N)=O [TS050, N-Ethyl-N-nitrosourea]	−	−	−	+	−	−	−	−	−	−	−	−	−	−	−	+	−	−	−	−	Behavior of gene caused by administration of chemical substance, Gene No. 893 [1]: −; Behavior of gene caused by administration of chemical substance, Gene No. 6026 [1]: −; Behavior of gene caused by administration of chemical substance, Gene No. 154 [1]: −; Behavior of gene caused by administration of chemical substance, Gene No. 1993 [1]: −; Behavior of gene caused by administration of chemical substance, Gene No. 813 [1]: −; Behavior of gene caused by administration of chemical substance, Gene No. 2494 [1]: −; Behavior of gene caused by administration of chemical substance, Gene No. 2546 [1]: −; Behavior of gene caused by administration of chemical substance, Gene No. 3776 [1]: −; Behavior of gene caused by administration of chemical substance, Gene No. 3929 [1]: −; Behavior of gene caused by administration of chemical substance, Gene No. 1119 [1]: −; Behavior of gene caused by administration of chemical substance, Gene No. 6742 [1]: −; Behavior of gene caused by administration of chemical substance, Gene No. 5634 [1]: −; Behavior of gene caused by administration of chemical substance, Gene No. 5726 [1]: +; Liver carcinogenicity [2]: Cr−; Carcinogenicity [3]: C+; Mutagenicity by Ames test [4]: M+
O=C(O)C(Cl)(Cl)Cl [TS051, Trichloroacetic acid]	−	−	−	−	−	−	−	−	−	+	−	+	+	−	−	−	−	−	−	−	Behavior of gene caused by administration of chemical substance, Gene No. 893 [1]: −; Behavior of gene caused by administration of chemical substance, Gene No. 6026 [1]: −; Behavior of gene caused by administration of chemical substance, Gene No. 154 [1]: −; Behavior of gene caused by administration of chemical substance, Gene No. 1993 [1]: −; Behavior of gene caused by administration of chemical substance, Gene No. 813 [1]: −; Behavior of gene caused by administration of chemical substance, Gene No. 2494 [1]: −; Behavior of gene caused by administration of chemical substance, Gene No. 2546 [1]: −; Behavior of gene caused by administration of chemical substance, Gene No. 3776 [1]: −; Behavior of gene caused by administration of chemical substance, Gene No. 3929 [1]: −; Behavior of gene caused by administration of chemical substance, Gene No. 1119 [1]: −; Behavior of gene caused by administration of chemical substance, Gene No. 6742 [1]: −; Behavior of gene caused by administration of chemical substance, Gene No. 5634 [1]: −; Behavior of gene caused by administration of chemical substance, Gene No. 5726 [1]: +; Liver carcinogenicity [2]: Cr−; Carcinogenicity [3]: C+; Mutagenicity by Ames test [4]: M−
